Where two headings read alike, the source gives them in different places.
Biological target: human S1P3 receptor (Homo sapiens (Human), UniProt Q99500)
Assay: Activation or block of activation of human S1P3 receptor, Ca+2 FLIPR assay
Type: cell-based
Settings: for IC50: read-out: S1P3 IC50
Protocol: Compounds were assessed for their ability to activate or block activation of the human S1P3 receptor in T24 cells stably expressing the human S1P3 receptor. Ten thousand cells/well were plated into 384-well poly-D-lysine coated plates one day prior to use. The growth media for the S1P3 receptor expressing cell line was McCoy's 5A medium supplemented with 10% charcoal-treated fetal bovine serum (FBS), 1% antibiotic-antimycotic and 400 μg/ml geneticin. On the day of the experiment, the cells were washed twice with Hank's Balanced Salt Solution supplemented with 20 mM HEPES (HBSS/Hepes buffer). […] Extracellular dye was removed by washing the cell plates four times prior to placing the plates in the FLIPR (Fluorometric Imaging Plate Reader, Molecular Devices). Ligands were diluted in HBSS/Hepes buffer and prepared in 384-well microplates. The positive control, Sphingosine-1-Phosphate (S1P), was diluted in HBSS/Hepes buffer with 4 mg/ml fatty acid free bovine serum albumin. The FLIPR transferred 12.5 μl from the ligand microplate to the cell plate and took fluorescent measurements for 75 seconds, taking readings every second, and then for 2.5 minutes, taking readings every 10 seconds. […] IC50 values were determined through a […] analysis using the Levenburg Marquardt algorithm.

[1] = T24 cells stably expressing the human S1P3 receptor, FLIPR Ca+2 response, 0.61 nM to 10,000 nM
[2] = T24 cells stably expressing the human S1P3 receptor, value in brackets

Sequence of human S1P3 receptor (Q99500 whole entry): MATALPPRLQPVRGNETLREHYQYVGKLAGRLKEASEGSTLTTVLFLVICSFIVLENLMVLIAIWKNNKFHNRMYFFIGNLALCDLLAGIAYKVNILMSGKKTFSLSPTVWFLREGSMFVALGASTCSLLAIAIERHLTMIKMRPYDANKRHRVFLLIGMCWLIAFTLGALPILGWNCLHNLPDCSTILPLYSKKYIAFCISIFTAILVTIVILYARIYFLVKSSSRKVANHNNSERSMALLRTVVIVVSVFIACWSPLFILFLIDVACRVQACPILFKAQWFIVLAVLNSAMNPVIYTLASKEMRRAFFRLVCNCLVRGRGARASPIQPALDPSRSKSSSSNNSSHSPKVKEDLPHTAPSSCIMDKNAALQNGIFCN

CC(C)c1c(C(=O)NCc2cncc(F)c2)c2ccc(C3=N[C@@H](C)CO3)cc2n1Cc1ccccc1 [Compound 72, (S)-1-Benzyl-N-((5-fluoropyridin-3-yl)methyl)-2-isopropyl-6-(4-methyl-4,5-dihydrooxazol-2-yl)-1H-indole-3-carboxamide]
S1P3 (% inh): 43 nM (99) %
IC50: 43 nM

CC[C@H]1COC(c2ccc3c(C(=O)NCc4cncc(F)c4)c(C(C)C)n(Cc4ccccc4)c3c2)=N1 [Compound 73, (S)-1-Benzyl-6-(4-ethyl-4,5-dihydrooxazol-2-yl)-N-((5-fluoropyridin-3-yl)methyl)-2-isopropyl-1H-indole-3-carboxamide]
IC50 [1]: 35 nM
S1P3 (% inh) [2]: 100%

CC(C)c1c(C(=O)NCc2ccc(F)c(F)c2)c2ccc(C3=N[C@H](C)CO3)cc2n1Cc1ccccc1 [Compound 74, (R)-1-Benzyl-N-(3,4-difluorobenzyl)-2-isopropyl-6-(4-methyl-4,5-dihydrooxazol-2-yl)-1H-indole-3-carboxamide]
IC50 [1]: 49 nM
S1P3 (% inh) [2]: 99%

CC[C@H]1COC(c2ccc3c(C(=O)NCc4ccc(F)c(F)c4)c(C(C)C)n(Cc4ccccc4)c3c2)=N1 [Compound 75, (S)-1-Benzyl-N-(3,4-difluorobenzyl)-6-(4-ethyl-4,5-dihydrooxazol-2-yl)-2-isopropyl-1H-indole-3-carboxamide]
IC50 [1]: 17 nM
S1P3 (% inh) [2]: 97%

CC(C)c1c(C(=O)NCc2ccc(F)c(F)c2)c2ccc(C3=N[C@@H](C)CO3)cc2n1Cc1ccccc1 [Compound 76, (S)-1-Benzyl-N-(3,4-difluorobenzyl)-2-isopropyl-6-(4-methyl-4,5-dihydrooxazol-2-yl)-1H-indole-3-carboxamide]
IC50 [1]: 33 nM
S1P3 (% inh) [2]: 99%

COC[C@H]1COC(c2ccc3c(C(=O)NCc4ccc(F)c(F)c4)c(C(C)C)n(Cc4ccccc4)c3c2)=N1 [Compound 77, (S)-1-Benzyl-N-(3,4-difluorobenzyl)-2-isopropyl-6-(4-(methoxymethyl)-4,5-dihydrooxazol-2-yl)-1H-indole-3-carboxamide]
IC50 [1]: 46 nM
S1P3 (% inh) [2]: 96%

CC[C@H]1COC(c2ccc3c(C(=O)NCc4ccc(F)c(F)c4)c(C(C)C)n(Cc4ccccn4)c3c2)=N1 [Compound 80, (S)—N-(3,4-Difluorobenzyl)-6-(4-ethyl-4,5-dihydrooxazol-2-yl)-2-isopropyl-1-(pyridin-2-ylmethyl)-1H-indole-3-carboxamide]
IC50 [1]: 7 nM
S1P3 (% inh) [2]: 99%

CC(C)c1c(C(=O)NCc2ccc(F)c(F)c2)c2ccc(C3=N[C@@H](C)CO3)cc2n1Cc1cccnc1 [Compound 82, (S)—N-(3,4-Difluorobenzyl)-2-isopropyl-6-(4-methyl-4,5-dihydrooxazol-2-yl)-1-(pyridin-3-ylmethyl)-1H-indole-3-carboxamide]
IC50 [1]: 44 nM
S1P3 (% inh) [2]: 100%

CC[C@H]1COC(c2ccc3c(C(=O)NCc4ccc(F)c(F)c4)c(C(C)C)n(Cc4ncco4)c3c2)=N1 [Compound 83, (S)—N-(3,4-Difluorobenzyl)-6-(4-ethyl-4,5-dihydrooxazol-2-yl)-2-isopropyl-1-(oxazol-2-ylmethyl)-1H-indole-3-carboxamide]
IC50 [1]: 280 nM
S1P3 (% inh) [2]: 99%

CC(C)c1c(C(=O)NCc2cc(F)cc(F)c2)c2ccc(C3=N[C@@H](C)CO3)cc2n1Cc1ccccn1 [Compound 84, (S)—N-(3,5-Difluorobenzyl)-2-isopropyl-6-(4-methyl-4,5-dihydrooxazol-2-yl)-1-(pyridin-2-ylmethyl)-1H-indole-3-carboxamide]
IC50 [1]: 40 nM
S1P3 (% inh) [2]: 89%

CC[C@H]1COC(c2ccc3c(C(=O)NCc4cc(F)cc(F)c4)c(C(C)C)n(Cc4ccccn4)c3c2)=N1 [Compound 85, (S)—N-(3,5-Difluorobenzyl)-6-(4-ethyl-4,5-dihydrooxazol-2-yl)-2-isopropyl-1-(pyridin-2-ylmethyl)-1H-indole-3-carboxamide]
IC50 [1]: 18 nM
S1P3 (% inh) [2]: 100%

CC(C)c1c(C(=O)NCc2ccc(F)cc2)c2ccc(C3=N[C@@H](C)CO3)cc2n1Cc1ccccn1 [Compound 86, (S)—N-(4-Fluorobenzyl)-2-isopropyl-6-(4-methyl-4,5-dihydrooxazol-2-yl)-1-(pyridin-2-ylmethyl)-1H-indole-3-carboxamide]
IC50 [1]: 48 nM
S1P3 (% inh) [2]: 100%

CC(C)c1c(C(=O)NCc2ccc(F)c(F)c2)c2ccc(-c3nnco3)cc2n1Cc1ccccc1 [Compound 89, 1-Benzyl-N-(3,4-difluorobenzyl)-2-isopropyl-6-(1,3,4-oxadiazol-2-yl)-1H-indole-3-carboxamide]
IC50 [1]: 59 nM
S1P3 (% inh) [2]: 98%

CC(C)Oc1ccc2c(C(=O)NCc3ccc(F)c(F)c3)c(CN(C)C)n(Cc3ccccn3)c2c1 [Compound 98, N-(3,4-Difluorobenzyl)-2-((dimethylamino)methyl)-6-isopropoxy-1-(pyridin-2-ylmethyl)-1H-indole-3-carboxamide]
IC50 [1]: 632 nM
S1P3 (% inh) [2]: 100%

CC(C)Oc1ccc2c(C(=O)NCc3ccc(F)c(F)c3)c(C3=NCCO3)n(Cc3ccccn3)c2c1 [Compound 104, N-(3,4-Difluorobenzyl)-2-(4,5-dihydrooxazol-2-yl)-6-isopropoxy-1-(pyridin-2-ylmethyl)-1H-indole-3-carboxamide]
IC50 [1]: 3900 nM
S1P3 (% inh) [2]: 50%

CC(C)Oc1ccc2c(C(=O)NCc3ccc(F)c(F)c3)c(C=O)n(Cc3ccccn3)c2c1 [Compound 105, N-(3,4-Difluorobenzyl)-2-formyl-6-isopropoxy-1-(pyridin-2-ylmethyl)-1H-indole-3-carboxamide]
IC50 [1]: 485 nM
S1P3 (% inh) [2]: 98%

CC(C)Oc1ccc2c(C(=O)NCc3ccc(F)c(F)c3)c(CO)n(Cc3ccccn3)c2c1 [Compound 106, N-(3,4-Difluorobenzyl)-2-(hydroxymethyl)-6-isopropoxy-1-(pyridin-2-ylmethyl)-1H-indole-3-carboxamide]
IC50 [1]: 689 nM
S1P3 (% inh) [2]: 96%

CC(C)Oc1ccc2c(C(=O)NCc3ccc(F)c(F)c3)c(C(C)O)n(Cc3ccccn3)c2c1 (centres unmarked) [Compound 108, N-(3,4-Difluorobenzyl)-2-(1-hydroxyethyl)-6-isopropoxy-1-(pyridin-2-ylmethyl)-1H-indole-3-carboxamide]
IC50 [1]: 15 nM
S1P3 (% inh) [2]: 98%

CC(=O)c1c(C(=O)NCc2ccc(F)c(F)c2)c2ccc(OC(C)C)cc2n1Cc1ccccn1 [Compound 109, 2-Acetyl-N-(3,4-difluorobenzyl)-6-isopropoxy-1-(pyridin-2-ylmethyl)-1H-indole-3-carboxamide]
IC50 [1]: 21 nM
S1P3 (% inh) [2]: 99%

CC(C)c1c(C(=O)NCc2ccc(F)c(F)c2)c2ccc([N+](=O)[O-])cc2n1Cc1ccccc1 [Compound 124, 1-Benzyl-N-(3,4-difluorobenzyl)-2-isopropyl-6-nitro-1H-indole-3-carboxamide]
S1P3 (% inh): 242 nM (90) %
IC50: 242 nM

CC(C)c1c(C(=O)NCc2ccc(F)c(F)c2)c2ccc(N)cc2n1Cc1ccccc1 [Compound 125, 6-Amino-1-benzyl-N-(3,4-difluorobenzyl)-2-isopropyl-1H-indole-3-carboxamide]
IC50 [1]: 1700 nM
S1P3 (% inh) [2]: 90%

CC(C)c1c(C(=O)NCc2ccc(F)c(F)c2)c2ccc(NC3CCOC3)cc2n1Cc1ccccc1 (centres unmarked) [Compound 126, 1-Benzyl-N-(3,4-difluorobenzyl)-2-isopropyl-6-(tetrahydrofuran-3-ylamino)-1H-indole-3-carboxamide]
IC50 [1]: 177 nM
S1P3 (% inh) [2]: 100%

CC(C)C(=O)Nc1ccc2c(C(=O)NCc3ccc(F)c(F)c3)c(C(C)C)n(Cc3ccccc3)c2c1 [Compound 127, 1-Benzyl-N-(3,4-difluorobenzyl)-6-isobutyramido-2-isopropyl-1H-indole-3-carboxamide]
IC50 [1]: 890 nM
S1P3 (% inh) [2]: 97%

CC(C)c1c(C(=O)NCc2ccc(F)c(F)c2)c2ccc(N3CCCC3=O)cc2n1Cc1ccccc1 [Compound 128, 1-Benzyl-N-(3,4-difluorobenzyl)-2-isopropyl-6-(2-oxopyrrolidin-1-yl)-1H-indole-3-carboxamide]
IC50 [1]: 502 nM
S1P3 (% inh) [2]: 99%

CC(C)c1c(C(=O)NCc2ccc(F)c(F)c2)c2ccc(NC3CCCC3)cc2n1Cc1ccccc1 [Compound 130, 1-Benzyl-6-(cyclopentylamino)-N-(3,4-difluorobenzyl)-2-isopropyl-1H-indole-3-carboxamide]
IC50 [1]: 44 nM
S1P3 (% inh) [2]: 99%

CC(C)c1c(C(=O)NCc2ccc(F)c(F)c2)c2ccc(OCc3ncco3)cc2n1Cc1ccccc1 [Compound 131, 1-Benzyl-N-(3,4-difluorobenzyl)-2-isopropyl-6-(1,3-oxazol-2-ylmethoxy)-1H-indole-3-carboxamide]
IC50 [1]: 890 nM
S1P3 (% inh) [2]: 96%

CC(C)c1c(C(=O)NCc2ccc(F)c(F)c2)c2ccc(OC3CCOCC3)cc2n1Cc1ccccc1 [Compound 133, 1-Benzyl-N-(3,4-difluorobenzyl)-2-isopropyl-6-(tetrahydro-2H-pyran-4-yloxy)-1H-indole-3-carboxamide]
S1P3 (% inh): 36 nM (99) %
IC50: 36 nM

CC(C)c1c(C(=O)NCc2ccc(C(F)(F)F)nc2)c2ccc(OC3CCCC3)cc2n1Cc1ccccn1 [Compound 142, 6-(Cyclopentyloxy)-2-isopropyl-1-(pyridin-2-ylmethyl)-N-((6-(trifluoromethyl)pyridin-3-yl)methyl)-1H-indole-3-carboxamide]
IC50 [1]: 48 nM
S1P3 (% inh) [2]: 99%

From US8524917B2, “6-substituted indole-3-carboxylic acid amide compounds having sphingosine-1-phosphate (S1P) receptor antagonist biological activity” (Allergan, Inc., priority 2007, dated 2013)
